# Assay results: patent publication US4388304A, “Angiotensin-II analogues with antagonizing effects, containing an ester group in position 8, and a process for the preparation thereof” (Richter Gedeon Vegyeszeti Gyar RT, priority 1980, dated 1983)
# Test system: narcotized male cats
# Assay: Antagonism of Hypertensin (angiotensin-II) infusion-induced blood pressure rise in narcotized male cats
# Type: in vivo, cat
# Protocol: The antagonistic effects of the new compounds of the general formula (I) were investigated on narcotized male cats. After treating the animals with a ganglion blocking agent and bisecting the cervical vagus nerves on both side, an infusion of Hypertensin (CIBA) was given to the animals at a rate of 0.5 μg/kg/min. When the blood pressure of the animals reached a steady, increased level, the substance to be tested was administered either intravenously or subcutaneously in physiological saline solution or as an aqueous solution which also contained a carrier. The blood pressure drop was measured in mm Hg units, and the extent of decrease was expressed in percent related to the value before treatment. The statistical evaluation was performed on the basis of the blood pressure differences, by Student's single sample "t" test. The term "duration of effect" denotes the period elapsed until the observation of the last, still significant (p=5%) blood pressure difference.
# [1] = s.c., carboxymethyl cellulose (CMC), dose 50 μg/kg
# [2] = s.c., carboxymethyl cellulose (CMC), dose 100 μg/kg
# [3] = s.c., physiological saline, dose 50 μg/kg
# [4] = s.c., physiological saline, dose 100 μg/kg
# [5] = s.c., carboxymethyl cellulose (CMC), dose 200 μg/kg
SMILES,"blood pressure decrease, percent related to the value before treatment (i.v., dose 10 μg/kg) [%]","blood pressure decrease, percent related to the value before treatment (i.v., dose 20 μg/kg) [%]","duration of effect (i.v., dose 20 μg/kg) [min]","blood pressure decrease, percent related to the value before treatment [1] [%]",duration of effect [1],"blood pressure decrease, percent related to the value before treatment [2] [%]",duration of effect [2] [min],"blood pressure decrease, percent related to the value before treatment [3] [%]",duration of effect [3] [min],"blood pressure decrease, percent related to the value before treatment [4] [%]",duration of effect [4] [min],"blood pressure decrease, percent related to the value before treatment (s.c., gelatine, dose 200 μg/kg) [%]","duration of effect (s.c., gelatine, dose 200 μg/kg)",further results
"CC[C@H](C)[C@H](NC(=O)[C@H](Cc1ccc(O)cc1)NC(=O)[C@@H](NC(=O)[C@H](CCCNC(=N)N)NC(=O)CNC)C(C)C)C(=O)N[C@@H](Cc1c[nH]cn1)C(=O)N1CCC[C@H]1C(=O)N[C@@H](C)C(=O)OC [(Sar^1,Ala--OMe^8)-Ang-II, (sarcosine^1, alanine methyl ester^8)-angiotensin-II]",18,29,60,11,22 min,18,22,20,45,20,45,,,"duration of effect (i.v., dose 10 μg/kg): 12 min"
"CC[C@H](C)[C@H](NC(=O)[C@H](Cc1ccc(O)cc1)NC(=O)[C@@H](NC(=O)[C@H](CCCNC(=N)N)NC(=O)CNC)C(C)C)C(=O)N[C@@H](Cc1c[nH]cn1)C(=O)N1CCC[C@H]1C(=O)N[C@H](C(=O)OC)[C@@H](C)CC [(Sar^1,Ile--OMe^8)-Ang-II, (sarcosine^1, isoleucine methyl ester^8)angiotensin-II]",,21,25,9,.phi.,17,200,8,180,25,240,23,300 min,"blood pressure decrease, percent related to the value before treatment (i.v., dose 40 μg/kg): 20%; duration of effect (i.v., dose 40 μg/kg): 38 min; blood pressure decrease, percent related to the value before treatment (s.c., gelatine, dose 100 μg/kg): 5%; duration of effect (s.c., gelatine, dose 100 μg/kg): 15 min"
"CC[C@H](C)[C@H](NC(=O)[C@H](Cc1ccc(O)cc1)NC(=O)[C@@H](NC(=O)[C@H](CCCNC(=N)N)NC(=O)CNC)C(C)C)C(=O)N[C@@H](Cc1c[nH]cn1)C(=O)N1CCC[C@H]1C(=O)N[C@H](C(=O)OC)[C@@H](C)OC [(Sar^1,Thr/Me/--OMe^8)-Ang-II, (sarcosine^1, threonine/Me/methyl ester^8)-angiotensin-II]",,12,12,,,,,,,27,45,,,
"CNCC(=O)N[C@@H](CCCN=C(N)N)C(=O)N[C@H](C(=O)N[C@@H](Cc1ccc(O)cc1)C(=O)N[C@H](C(=O)N[C@@H](Cc1cnc[nH]1)C(=O)N1CCC[C@H]1C(=O)N[C@@H](C)C(=O)O)C(C)C)C(C)C [Saralasin, (Sar^1, Ala^8)-angiotensin-II, reference compound]",32,,,,,23,45,,,29,,23,.phi.,"blood pressure decrease, percent related to the value before treatment [5]: 28%; duration of effect [5]: 90 min; blood pressure decrease, percent related to the value before treatment (s.c., physiological saline, dose 200 μg/kg): 24%"
